In patent US20160311791A1, “NOVEL TRICYCLIC CALCIUM SENSING RECEPTOR ANTOGONISTS FOR THE TREATMENT OF OSTEOPOSOSIS” (MERCK SHARP & DOHME CORP., priority 2013, published 2016):

Molecular target: T1, calcium sensing receptor (Homo sapiens, UniProt P41180)
T1 sequence (P41180 20-1078): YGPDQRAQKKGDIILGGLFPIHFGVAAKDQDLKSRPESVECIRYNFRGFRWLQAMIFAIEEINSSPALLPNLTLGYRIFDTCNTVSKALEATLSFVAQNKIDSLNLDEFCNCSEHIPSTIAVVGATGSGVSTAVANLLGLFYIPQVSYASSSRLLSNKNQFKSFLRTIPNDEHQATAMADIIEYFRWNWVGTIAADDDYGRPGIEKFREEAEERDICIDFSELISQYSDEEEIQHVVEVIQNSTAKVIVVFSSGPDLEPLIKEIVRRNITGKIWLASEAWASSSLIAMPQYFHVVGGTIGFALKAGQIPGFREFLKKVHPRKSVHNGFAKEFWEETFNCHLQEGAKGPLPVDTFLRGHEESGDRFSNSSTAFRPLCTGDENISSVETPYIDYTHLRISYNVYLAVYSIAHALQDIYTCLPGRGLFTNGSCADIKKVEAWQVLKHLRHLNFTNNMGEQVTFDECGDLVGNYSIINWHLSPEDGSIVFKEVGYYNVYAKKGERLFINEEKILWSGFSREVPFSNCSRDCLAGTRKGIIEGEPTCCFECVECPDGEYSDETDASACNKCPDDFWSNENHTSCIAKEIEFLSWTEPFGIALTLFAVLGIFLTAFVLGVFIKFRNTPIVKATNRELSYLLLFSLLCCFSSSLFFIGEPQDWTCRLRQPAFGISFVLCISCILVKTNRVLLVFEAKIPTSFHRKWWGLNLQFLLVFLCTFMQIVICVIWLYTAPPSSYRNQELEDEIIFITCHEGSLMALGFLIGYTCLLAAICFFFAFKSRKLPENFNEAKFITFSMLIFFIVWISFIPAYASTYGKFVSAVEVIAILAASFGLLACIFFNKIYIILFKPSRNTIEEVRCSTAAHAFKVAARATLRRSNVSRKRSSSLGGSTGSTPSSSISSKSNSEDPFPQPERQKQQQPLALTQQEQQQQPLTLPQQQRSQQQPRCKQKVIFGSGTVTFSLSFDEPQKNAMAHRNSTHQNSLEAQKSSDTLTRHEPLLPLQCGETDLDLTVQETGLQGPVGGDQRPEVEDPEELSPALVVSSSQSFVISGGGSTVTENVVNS
Assay: Calcium sensing receptor antagonist activity (test not specified)
Details: not given

With `CC(C)(CC1Cc2ccccc2C1)NC[C@@H](O)COc1cc(-c2ccc(C(=O)O)cc2)ccc1F` [Example 25, (R)-3′-(3-((1-(2,3-dihydro-1H-inden-2-yl)-2-methylpropan-2-yl)amino)-2-hydroxypropoxy)-4′-fluoro-[1,1′-biphenyl]-4-carboxylic acid] the “calcium sensing receptor antagonist activity” value was “shows calcium sensing receptor antagonist activity”.

Molecular target: T2, human CaSR (Homo sapiens, UniProt P41180)
T2 sequence (P41180 20-1078): T1 sequence (P41180 20-1078)
Assay: CaSR FLIPR assay (calcilytic activity)
Format: cell-based
Design: expressed in transfected cells
Details: HEK293 cells stably expressing human recombinant CaSR; 1 mM CaCl2 agonist; Tables 1-24; read-out: FLIPR ASSAY IC50
How it was run: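 Calcium flux in HEK293 cells stably expressing human CaSR, loaded with Calcium 4 dye for 1 h at 37° C, read on FLIPR. Compounds in 0.5% DMSO (10-point, 3-fold series) added first, then CaCl2 at 1 mM final. Buffer: 20 mM HEPES pH 7.4, HBSS, 0.4 mM CaCl2, Mg salts.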

Compared with `Cc1ccc([C@@H](C)OC[C@H](O)CNC(C)(C)Cc2ccc(Cl)cc2Cl)c2c1O[C@H]1[C@H](C(=O)O)[C@@H]21` [Example 9-9], `Cc1ccc([C@@H](C)OC[C@H](O)CNC(C)(C)Cc2ccc(Cl)c(Cl)c2)c2c1O[C@H]1[C@H](C(=O)O)[C@@H]21` [Example 9-10] is 1.8-fold lower in IC50: 77 nM for the first, 42 nM for the second. The second is the more potent here.

First: CCOC(=O)[C@@H]1[C@H]2Oc3c(C)ccc([C@@H](C)OC[C@H](O)CNC(C)(C)Cc4ccc(SC)c(F)c4)c3[C@H]21 [Example 12-1]
Second: CSc1ccc(CC(C)(C)NC[C@@H](O)CO[C@H](C)c2c(Cl)cc(C)c3c2[C@@H]2[C@H](O3)[C@H]2C(=O)O)cc1F [Example 16-6]
The IC50 of the first is 7.6-fold higher: 130 nM for the first, 17 nM for the second. The second is the more potent here.

Going from `C[C@@H](OC[C@H](O)CNC(C)(C)Cc1ccc2ccccc2c1)c1cccc2c1[C@@H]1[C@H](C2)[C@H]1C(=O)O` [Example 13-1] to `C[C@@H](OC[C@H](O)CNC(C)(C)Cc1ccc2ccccc2c1)c1cccc2c1[C@H]1[C@@H](C2)[C@@H]1C(=O)O` [Example 13-6], the IC50 rises from 28 nM to 4900 nM (180-fold).

`C[C@@H](OC[C@H](O)CNC(C)(C)Cc1ccc2occc2c1)c1cccc2c1[C@@H]1[C@H](C2)[C@H]1C(=O)O` [Example 13-2] and `C[C@@H](OC[C@H](O)CNC(C)(C)Cc1ccc2sccc2c1)c1cccc2c1[C@@H]1[C@H](C2)[C@H]1C(=O)O` [Example 13-4] are within 1.5-fold of each other in IC50: 47 nM for the first, 36 nM for the second.

`C[C@@H](OC[C@H](O)CNC(C)(C)Cc1ccc2c(c1)CCC2)c1cccc2c1[C@@H]1[C@H](C2)[C@H]1C(=O)O` [Example 13-3] and `CSc1ccc(CC(C)(C)NC[C@@H](O)CO[C@H](C)c2cccc3c2[C@@H]2[C@H](C3)[C@H]2C(=O)O)cc1F` [Example 13-5] are within 1.5-fold of each other in IC50: 88 nM for the first, 130 nM for the second.

First: C[C@@H](OC[C@H](O)CNC(C)(C)Cc1ccc2ccccc2c1)c1cccc2c1C[C@@H]1[C@@H](C(=O)O)[C@H]21 [Example 14-1]
Second: C[C@@H](OC[C@H](O)CNC(C)(C)Cc1ccc2ccccc2c1)c1cccc2c1C[C@H]1[C@H](C(=O)O)[C@@H]21 [Example 14-2]
The IC50 of the first is 1.8-fold higher: 270 nM for the first, 150 nM for the second. The second is the more potent here.

Compared with `C[C@@H](OC[C@H](O)CNC(C)(C)Cc1ccc2ccccc2c1)c1c(Cl)ccc2c1[C@@H]1[C@H](O2)[C@H]1C(=O)O` [Example 15-1], `C[C@@H](OC[C@H](O)CNC(C)(C)Cc1ccc2ccccc2c1)c1ccc(Cl)c2c1C1C(O2)C1C(=O)O` (stereo partly shown) [Example 18-1] is 2.4-fold higher in IC50: 17 nM for the first, 40 nM for the second. The first is the more potent here.

First: Cc1cc(Cl)c([C@@H](C)OC[C@H](O)CNC(C)(C)Cc2ccc3ccccc3c2)c2c1O[C@@H]1[C@@H](C(=O)O)[C@H]21 [Example 16-1]
Second: Cc1cc(Cl)c([C@@H](C)OC[C@H](O)CNC(C)(C)Cc2ccc3occc3c2)c2c1O[C@@H]1[C@@H](C(=O)O)[C@H]21 [Example 16-2]
The IC50 of the first is 1.9-fold lower: 9 nM for the first, 17 nM for the second. The first is the more potent here.

Compared with `Cc1cc(Cl)c([C@@H](C)OC[C@H](O)CNC(C)(C)Cc2ccc3sccc3c2)c2c1O[C@@H]1[C@@H](C(=O)O)[C@H]21` [Example 16-3], `Cc1cc(Cl)c([C@@H](C)OC[C@H](O)CNC(C)(C)Cc2ccc3c(c2)OCCO3)c2c1O[C@@H]1[C@@H](C(=O)O)[C@H]21` [Example 16-4] is 2.9-fold higher in IC50: 14 nM for the first, 41 nM for the second. The first is the more potent here.

`COc1ccc(CC(C)(C)NC[C@@H](O)CO[C@H](C)c2c(Cl)cc(C)c3c2[C@@H]2[C@H](O3)[C@H]2C(=O)O)c(F)c1` [Example 16-5] and `C[C@@H](OC[C@H](O)CNC(C)(C)Cc1ccc2ccccc2c1)c1ccc(F)c2c1C1C(O2)C1C(=O)O` (stereo partly shown) [Example 17-1] are within 1.5-fold of each other in IC50: 24 nM for the first, 26 nM for the second.

Going from `C[C@@H](OC[C@H](O)CNC(C)(C)Cc1ccc2ccccc2c1)c1cc(F)cc2c1O[C@@H]1[C@@H](C(=O)O)[C@H]21` [Example 19-1] to `C[C@@H](OC[C@H](O)CNC(C)(C)Cc1ccc2ccccc2c1)c1cc(Cl)cc2c1O[C@@H]1[C@@H](C(=O)O)[C@H]21` [Example 20-1], the IC50 falls from 176 nM to 20 nM (8.8-fold). The second is the more potent here.

`CC(OC[C@H](O)CNC(C)(C)Cc1ccc2ccccc2c1)c1ccc2c(c1)C1C(O2)C1C(=O)O` (stereo partly shown) [Example 21-1] and `CC(C)(Cc1ccc2ccccc2c1)NC[C@@H](O)COc1ccc2c(c1)C1C(O2)C1C(=O)O` (stereo partly shown) [Example 22-1] are within 1.5-fold of each other in IC50: 2720 nM for the first, 3550 nM for the second.

Going from `CC(OC[C@H](O)CNC(C)(C)Cc1ccc2ccccc2c1)c1cccc2c1C1C(S2)C1C(=O)O` (stereo partly shown) [Example 23-1] to `Cc1ccc(C(C)OC[C@H](O)CNC(C)(C)Cc2ccc3ccccc3c2)c2c1OC(C)(C)C1C(C(=O)O)C21` (stereo partly shown) [Example 24-1], the IC50 rises from 42 nM to 106 nM (2.5-fold). The first is the more potent here.

Molecular target: T2, human CaSR
Assay: CaSR binding assay (radioligand, HEK293 membranes)
Design: expressed in transfected cells; host or cells: HEK293 cell membranes
Details: radio-labeled compound used as ligand; read-out: apparent Kd
Method: Procedures for CaSR Binding Assay
Membrane preparations from HEK293 cells expressing the human CaSR were generated. The cells were cultured and then washed twice with 1×PBS. The cells were dissociated by adding 4 ml pre-warmed 0.25% Trypsin-EDTA, and by incubating the flask at RT for 3 minutes. 10 ml media was dispensed over the cell layer surface, and the cells were harvested into a centrifuge tube. The cells were centrifuged at 200×g for 10 minutes. The cell pellet was suspended in 30 ml of membrane preparation buffer and then homogenized on ice twice at 16000 rpm for 10 seconds. Following homogenization, the membrane was collected by centrifuge at 40000×g for 30 minutes at 4° C., washed twice with 30 ml membrane preparation buffer, and centrifuged again at 40000×g for 10 minutes. The membrane pellet was suspended in 30 ml membrane preparation buffer (50 mM Tris, pH7.0, 10 mM MgCl, Proteinase inhibitor (Roche, REF 04693116001), and then homogenized on ice once at 16000 rpm for 10 seconds. The total protein concentration was measured using a BCA kit. The membrane protein concentration was adjusted to 2.4 mg/ml and then diluted with binding buffer (10 mM HEPES, pH7.4, 130 mM NaCl, 0.4 mM CaCl2, 5 mM MgCl2, 1 mM EGTA, 10 mM glucose, 0.1% BSA) to 0.33 μg/μl. The final amount in the binding assay was 20 μg/well. Test compound was serially diluted manually by using BIOHIT multi-channel pipettor in 100% DMSO (10 point, 3-fold dilution of each compound from 5.0 μM in 100% DMSO). 4 μl of serially diluted compound was manually transferred into a second assay microplate that contained 196 μl of binding assay buffer to create the intermediate dilution plate. For background, 20 μl of assay buffer was added to each control well. […] The binding reaction used a 100 μl reaction volume consisting of 10 μl of test compound, 30 μl of diluted radio-labelled compound, and 60 μl of membrane solution (0.33 μg/μl). The reaction mixture was incubated at room temperature for one hour. The Grade GF/C filter plates were presoaked in 0.3% PEI (protect from light) for 60 minutes at room temperature. The plate was then washed three times with ice-cold wash buffer (25 mM Tris-HCl, PH7.4, 130 mM NaCl, 5 mM MgCl2, 0.4 mM CaCl2, 0.1% BSA) prior to filtration of the binding samples. The binding reaction was terminated by rapid filtration of 100 μl binding mixture through the GF/C plate. Plates were then washed 6 times with ice-cold wash buffer. Filter plates were dried with a hair dryer for 20 minutes. 60 μl/well MICROSCINT 20 (a cocktail for microplates) was added to the bottom of sealed filters, then the filters were sealed at the top with tape. Bound radioactivity was counted in a TOPCOUNT scintillation counter. Exemplary compounds bind in the 1-500 nM range.

`CC(C)(CC1Cc2ccccc2C1)NC[C@@H](O)COc1cc(-c2ccc(C(=O)O)cc2)ccc1F` [Example 25, (R)-3′-(3-((1-(2,3-dihydro-1H-inden-2-yl)-2-methylpropan-2-yl)amino)-2-hydroxypropoxy)-4′-fluoro-[1,1′-biphenyl]-4-carboxylic acid] was tested, and the Kd was 400 nM.
